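Compound exposure: 48 hours, 5 concentrations, 96-well plates. Here, GI50 denotes the concentration required for 50% inhibition of growth. TGI marks complete inhibition of growth.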
What was measured:
Experiment in all cases: growth of human tumour cells (NCI), 48 h
786-0 renal = test system: 786-0 renal
COLO 205 colon = test system: COLO 205 colon
DU-145 prostate = test system: DU-145 prostate
HL-60(TB) leukemia = test system: HL-60(TB) leukemia
OVCAR-4 ovarian = test system: OVCAR-4 ovarian
OVCAR-3 ovarian = test system: OVCAR-3 ovarian
EKVX NSCLC = test system: EKVX NSCLC
CAKI-1 renal = test system: CAKI-1 renal
CCRF-CEM leukemia = test system: CCRF-CEM leukemia
OVCAR-5 ovarian = test system: OVCAR-5 ovarian
KM12 colon = test system: KM12 colon
A498 renal = test system: A498 renal
RPMI-8226 leukemia = test system: RPMI-8226 leukemia
NCI-H226 lung = test system: NCI-H226 lung
SN12C renal = test system: SN12C renal
A549 NSCLC = test system: A549 NSCLC
SK-MEL-28 melanoma = test system: SK-MEL-28 melanoma
SK-OV-3 ovarian = test system: SK-OV-3 ovarian
MDA-MB-435 = test system: MDA-MB-435
ACHN renal = test system: ACHN renal
TK-10 renal = test system: TK-10 renal
SW-620 colon = test system: SW-620 colon
MOLT-4 leukemia = test system: MOLT-4 leukemia
SNB-19 CNS = test system: SNB-19 CNS
SK-MEL-5 melanoma = test system: SK-MEL-5 melanoma
SF-295 CNS = test system: SF-295 CNS
SR leukemia = test system: SR leukemia
HCT-116 colon = test system: HCT-116 colon
NCI/ADR-RES ovarian = test system: NCI/ADR-RES ovarian
HOP-62 NSCLC = test system: HOP-62 NSCLC
T-47D breast = test system: T-47D breast
SNB-75 CNS = test system: SNB-75 CNS
UO-31 renal = test system: UO-31 renal
HS 578T breast = test system: HS 578T breast
MDA-MB-231 breast = test system: MDA-MB-231 breast
NCI-H460 lung = test system: NCI-H460 lung
UACC-257 melanoma = test system: UACC-257 melanoma
HT29 colon = test system: HT29 colon
NCI-H522 lung = test system: NCI-H522 lung
MCF7 breast = test system: MCF7 breast
SF-268 CNS = test system: SF-268 CNS
RXF 393 renal = test system: RXF 393 renal
M14 melanoma = test system: M14 melanoma
U251 CNS = test system: U251 CNS
PC-3 prostate = test system: PC-3 prostate
IGROV1 ovarian = test system: IGROV1 ovarian
K-562 leukemia = test system: K-562 leukemia
HCT-15 colon = test system: HCT-15 colon
NCI-H23 lung = test system: NCI-H23 lung
OVCAR-8 ovarian = test system: OVCAR-8 ovarian
LOX IMVI melanoma = test system: LOX IMVI melanoma
HOP-92 NSCLC = test system: HOP-92 NSCLC
SF-539 CNS = test system: SF-539 CNS
UACC-62 melanoma = test system: UACC-62 melanoma
BT-549 breast = test system: BT-549 breast
MALME-3M melanoma = test system: MALME-3M melanoma

SMILES: CN(C)c1ccc(/C=c2/c3ccccc3n3c2cc(C24CC5CC(CC(C5)C2)C4)[n+]3C)cc1
- TGI (786-0 renal): 0.658 µM
- TGI (COLO 205 colon): 0.32 µM
- TGI (DU-145 prostate): 1.84 µM
- TGI (HL-60(TB) leukemia): 0.666 µM
- TGI (OVCAR-4 ovarian): 0.731 µM
- TGI (OVCAR-3 ovarian): 1.6 µM
- TGI (EKVX NSCLC): 1.58 µM
- TGI (CAKI-1 renal): 1.04 µM
- TGI (CCRF-CEM leukemia): > 100 µM
- TGI (OVCAR-5 ovarian): 1.61 µM
- TGI (KM12 colon): 0.405 µM
- TGI (A498 renal): 1.08 µM
- TGI (RPMI-8226 leukemia): > 100 µM
- TGI (NCI-H226 lung): 1.49 µM
- TGI (SN12C renal): 1.12 µM
- TGI (A549 NSCLC): 1.09 µM
- TGI (SK-MEL-28 melanoma): 2.16 µM
- TGI (SK-OV-3 ovarian): 1.48 µM
- TGI (MDA-MB-435): 0.694 µM
- TGI (ACHN renal): 1.23 µM
- TGI (TK-10 renal): 1.65 µM
- TGI (SW-620 colon): 1.44 µM
- TGI (MOLT-4 leukemia): > 100 µM
- TGI (SNB-19 CNS): 1.36 µM

SMILES: COc1ccc(-c2ccc(-c3ccc(C(=N)N)s3)s2)cc1Cl
- GI50 (SK-MEL-5 melanoma): 1.88 µM
- TGI (SK-MEL-5 melanoma): 3.52 µM
- GI50 (CCRF-CEM leukemia): 1.81 µM
- TGI (CCRF-CEM leukemia): 4.72 µM
- GI50 (A498 renal): 1.29 µM
- TGI (A498 renal): 2.6 µM
- GI50 (SF-295 CNS): 1.8 µM
- TGI (SF-295 CNS): 3.3 µM
- GI50 (SR leukemia): 0.299 µM
- TGI (SR leukemia): 1.34 µM

SMILES: COc1ccc(-c2ccc(/C=N/n3c(COc4ccc(Cl)cc4Cl)nn(CN4CCN(C)CC4)c3=S)o2)c([N+](=O)[O-])c1
- GI50 (786-0 renal): 21.4 µM
- TGI (786-0 renal): > 100 µM
- GI50 (COLO 205 colon): 29.3 µM
- TGI (COLO 205 colon): > 100 µM
- GI50 (DU-145 prostate): 17.1 µM
- TGI (DU-145 prostate): > 100 µM
- GI50 (HCT-116 colon): 16 µM
- TGI (HCT-116 colon): 29.5 µM
- GI50 (NCI/ADR-RES ovarian): 18.1 µM
- TGI (NCI/ADR-RES ovarian): 45.5 µM
- GI50 (HOP-62 NSCLC): 29.6 µM
- TGI (HOP-62 NSCLC): 79.5 µM
- GI50 (T-47D breast): 11.7 µM
- TGI (T-47D breast): 53.2 µM
- GI50 (SNB-75 CNS): 67.5 µM
- TGI (SNB-75 CNS): > 100 µM
- GI50 (HL-60(TB) leukemia): 16.3 µM
- TGI (HL-60(TB) leukemia): 43.9 µM
- GI50 (UO-31 renal): 26.7 µM
- TGI (UO-31 renal): > 100 µM
- GI50 (OVCAR-4 ovarian): 59.7 µM
- TGI (OVCAR-4 ovarian): > 100 µM
- GI50 (HS 578T breast): 37.8 µM
- TGI (HS 578T breast): > 100 µM
- GI50 (OVCAR-3 ovarian): 7.51 µM
- TGI (OVCAR-3 ovarian): 25 µM
- GI50 (MDA-MB-231 breast): 28.9 µM
- TGI (MDA-MB-231 breast): > 100 µM
- GI50 (CAKI-1 renal): 16.8 µM
- TGI (CAKI-1 renal): 37.3 µM
- GI50 (NCI-H460 lung): 15 µM
- TGI (NCI-H460 lung): 45.1 µM
- GI50 (UACC-257 melanoma): 23.5 µM
- TGI (UACC-257 melanoma): 59.6 µM
- GI50 (CCRF-CEM leukemia): 14.3 µM
- TGI (CCRF-CEM leukemia): 47 µM
- GI50 (HT29 colon): 41.2 µM
- TGI (HT29 colon): > 100 µM
- GI50 (NCI-H522 lung): 44.5 µM
- TGI (NCI-H522 lung): > 100 µM
- GI50 (OVCAR-5 ovarian): 24.2 µM
- TGI (OVCAR-5 ovarian): 97.1 µM
- GI50 (MCF7 breast): 10 µM
- TGI (MCF7 breast): 29.8 µM
- GI50 (KM12 colon): 15.1 µM
- TGI (KM12 colon): 36.5 µM
- GI50 (A498 renal): 2.28 µM
- TGI (A498 renal): 5.1 µM
- GI50 (SF-268 CNS): 24.8 µM
- TGI (SF-268 CNS): > 100 µM
- GI50 (RXF 393 renal): 6.86 µM
- TGI (RXF 393 renal): 32.9 µM
- GI50 (RPMI-8226 leukemia): 9.37 µM
- TGI (RPMI-8226 leukemia): 50 µM
- GI50 (NCI-H226 lung): 12.5 µM
- TGI (NCI-H226 lung): 31 µM
- GI50 (SN12C renal): 17.8 µM
- TGI (SN12C renal): 41.5 µM
- GI50 (A549 NSCLC): 20.8 µM
- TGI (A549 NSCLC): > 100 µM
- GI50 (M14 melanoma): 19.8 µM
- TGI (M14 melanoma): 53.9 µM
- GI50 (SK-MEL-28 melanoma): 47.8 µM
- TGI (SK-MEL-28 melanoma): > 100 µM
- GI50 (SK-OV-3 ovarian): 30.8 µM
- TGI (SK-OV-3 ovarian): 80.7 µM
- GI50 (U251 CNS): 16.9 µM
- TGI (U251 CNS): 42.8 µM
- GI50 (MDA-MB-435): 15.9 µM
- TGI (MDA-MB-435): 37.5 µM
- GI50 (PC-3 prostate): 17.6 µM
- TGI (PC-3 prostate): 76.8 µM
- GI50 (IGROV1 ovarian): 45 µM
- TGI (IGROV1 ovarian): > 100 µM
- GI50 (ACHN renal): 21.9 µM
- TGI (ACHN renal): 55.7 µM
- GI50 (K-562 leukemia): 22.2 µM
- TGI (K-562 leukemia): > 100 µM
- GI50 (TK-10 renal): 2.43 µM
- TGI (TK-10 renal): 9.67 µM
- GI50 (HCT-15 colon): 17 µM
- TGI (HCT-15 colon): 35.4 µM
- GI50 (NCI-H23 lung): 13.3 µM
- TGI (NCI-H23 lung): 30.6 µM
- GI50 (OVCAR-8 ovarian): 18.9 µM
- TGI (OVCAR-8 ovarian): 53.5 µM
- GI50 (SF-295 CNS): 16.8 µM
- TGI (SF-295 CNS): 37.5 µM
- GI50 (SR leukemia): 31.1 µM
- TGI (SR leukemia): 96.1 µM
- GI50 (SNB-19 CNS): 35.2 µM
- TGI (SNB-19 CNS): > 100 µM
- GI50 (LOX IMVI melanoma): 11.4 µM
- TGI (LOX IMVI melanoma): 25.2 µM

SMILES: COc1cc([C@@H]2c3cc4c(cc3C[C@@H]3COC(=O)C32)OCO4)cc(OC)c1O (some centres not stated)
- TGI (COLO 205 colon): 0.0933 µM
- TGI (HOP-62 NSCLC): 24.3 µM
- TGI (UO-31 renal): > 100 µM
- TGI (SK-MEL-5 melanoma): 1.04 µM
- TGI (CAKI-1 renal): 0.823 µM
- TGI (UACC-257 melanoma): > 100 µM
- TGI (CCRF-CEM leukemia): 0.0526 µM
- TGI (HOP-92 NSCLC): 34.9 µM
- TGI (SF-539 CNS): 0.0443 µM
- TGI (MCF7 breast): 0.071 µM
- TGI (KM12 colon): > 100 µM
- TGI (A498 renal): > 100 µM
- TGI (SF-268 CNS): > 32.6 µM
- TGI (RXF 393 renal): 0.0635 µM
- TGI (RPMI-8226 leukemia): 0.137 µM
- TGI (NCI-H226 lung): > 59.9 µM
- TGI (SN12C renal): > 77.4 µM
- TGI (A549 NSCLC): > 93.4 µM
- TGI (M14 melanoma): > 100 µM
- TGI (SK-OV-3 ovarian): 2.47 µM
- TGI (U251 CNS): > 100 µM
- TGI (UACC-62 melanoma): > 52.1 µM
- TGI (IGROV1 ovarian): 0.0791 µM
- TGI (ACHN renal): 23.5 µM
- TGI (K-562 leukemia): > 100 µM
- TGI (TK-10 renal): > 100 µM
- TGI (HCT-15 colon): > 100 µM
- TGI (BT-549 breast): > 100 µM
- TGI (NCI-H23 lung): > 100 µM
- TGI (SW-620 colon): > 100 µM
- TGI (MALME-3M melanoma): 0.07 µM
- TGI (SF-295 CNS): 0.0585 µM
- TGI (SR leukemia): 0.0503 µM
- TGI (LOX IMVI melanoma): 15.7 µM

— PubChem BioAssay (NCI)
